Measurements from ChEMBL document CHEMBL1201862, “PubChem BioAssay data set” (2004).
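These data come from cells grown in 96-well plates and exposed to compound for 48 hours at five concentrations. Abbreviation: GI50, concentration required for 50% inhibition of growth.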 The source made the active and inactive calls. Cut-off read from the data, not from the text of the source: active = GI50 up to about 1.1 µM and inactive = higher.

How the values were obtained:
Test in all cases: NCI-60 cell line screen, 48 h
[1] = tested on: LXFL 529
[2] = tested on: M19-MEL
[3] = tested on: DMS-114
[4] = tested on: SNB-78
[5] = tested on: RXF 631
[6] = tested on: DLD-1
[7] = tested on: HOP-18
[8] = tested on: DMS-273
[9] = tested on: XF498

Row | Compound | GI50 [1] | GI50 [2] | GI50 [3] | GI50 [4] | GI50 [5] | GI50 [6] | GI50 [7] | GI50 [8] | GI50 [9]
1 | CCCCC1(OC(=O)CCC(=O)O)CCC2(CCC(C)C(C/C=C(C)/C=C/C(O)C(C)/C=C/C(=O)O)O2)OC1CC/C(C)=C/C(=O)O (stereo unspecified) | 1.8 µM (inactive) | 2.84 µM (inactive) | 2.45 µM (inactive) | 2.55 µM (inactive) | 1.93 µM (inactive) | 3.25 µM (inactive) | 4.58 µM (inactive) | 5.94 µM (inactive) | 2.03 µM (inactive)
2 | Cc1c(N)nc(C(CC(N)=O)NCC(N)C(N)=O)nc1C(=O)NC(C(=O)NC(C)C(O)C(C)C(=O)NC(C(=O)NCCc1nc(-c2nc(C(=O)NCCCNC(C)c3ccccc3)cs2)cs1)C(C)O)C(OC1OC(CO)C(O)C(O)C1OC1OC(CO)C(O)C(OC(N)=O)C1O)c1c[nH]cn1 (stereo unspecified) | 23.9 µM (inactive) | 15 µM (inactive) | 0.59 µM (active) | > 50 µM (inactive) | – | 32.8 µM (inactive) | 21.3 µM (inactive) | 0.0752 µM (active) | 0.973 µM (active)
3 | O=C(NN1C(=O)C(Cl)C1c1cccc(Cl)c1)c1ccccc1O (stereo unspecified) | > 100 µM (inactive) | > 100 µM (inactive) | – | > 100 µM (inactive) | – | – | 0.167 µM (active) | > 100 µM (inactive) | 15.3 µM (inactive)
4 | CCCC(C(=O)OC)C1N/C(=N/C#N)N(Cc2ccccc2)C1=O (stereo unspecified) | > 100 µM (inactive) | > 100 µM (inactive) | > 100 µM (inactive) | – | – | > 100 µM (inactive) | – | > 100 µM (inactive) | > 100 µM (inactive)
5 | COc1cc2cnc3c4cc(O)ccc4ccc3c2cc1OC | 6.08 µM (inactive) | 24.7 µM (inactive) | 6.3 µM (inactive) | – | – | > 100 µM (inactive) | 34.8 µM (inactive) | – | –
6 | CS(=O)(=O)NNS(=O)(=O)c1ccc(F)cc1 | > 100 µM (inactive) | > 100 µM (inactive) | > 100 µM (inactive) | – | > 100 µM (inactive) | > 100 µM (inactive) | – | > 100 µM (inactive) | –
7 | O=C1C=CC(=O)c2c(O)ccc(O)c21 [NAPHTHAZALIN] | 0.535 µM (active) | 0.491 µM (active) | 1.8 µM (inactive) | 2.25 µM (inactive) | – | 0.326 µM (active) | 1.16 µM (inactive) | 3.17 µM (inactive) | 1.58 µM (inactive)
8 | CC1=C(C(=O)CC(=O)C(=O)Nc2cccc(C)c2C)Sc2ccccc2N1 | > 100 µM (inactive) | > 100 µM (inactive) | > 100 µM (inactive) | > 100 µM (inactive) | – | > 100 µM (inactive) | > 100 µM (inactive) | – | –
9 | CCN(CC)CCC1(C2CCCCC2)CCC(=O)NC1=O (stereo unspecified) | > 100 µM (inactive) | > 100 µM (inactive) | > 100 µM (inactive) | > 100 µM (inactive) | > 100 µM (inactive) | > 100 µM (inactive) | – | > 100 µM (inactive) | > 100 µM (inactive)
10 | Cc1c(N)nc([C@H](CC(N)=O)NC[C@H](N)C(N)=O)nc1C(=O)N[C@H](C(=O)N[C@H](C)[C@@H](O)[C@H](C)C(=O)N[C@H](C(=O)NCCc1nc(-c2nc(C(=O)NCCC[S+](C)C)cs2)cs1)[C@@H](C)O)C(OC1OC(CO)C(O)C(O)C1OC1OC(CO)C(O)C(OC(N)=O)C1O)c1c[nH]cn1 (stereo partly specified) | 16.9 µM (inactive) | 8.28 µM (inactive) | 0.438 µM (active) | 20.8 µM (inactive) | 0.608 µM (active) | 14.1 µM (inactive) | 4.27 µM (inactive) | 0.12 µM (active) | 0.776 µM (active)
11 | Cc1c2ccncc2c(C)c2c1[nH]c1ccc(OCC(F)(F)F)cc12 | 1.2 µM (inactive) | 1.84 µM (inactive) | 1.84 µM (inactive) | 2.92 µM (inactive) | 1.57 µM (inactive) | 1.57 µM (inactive) | – | 0.82 µM (active) | 1.61 µM (inactive)
12 | COc1cc2c[n+](C)c3c4cc5c(cc4ccc3c2cc1OC)OCO5 [NITIDINE CHLORIDE] | 1.4 µM (inactive) | 1.27 µM (inactive) | 1.24 µM (inactive) | 3.37 µM (inactive) | 19.8 µM (inactive) | 14.9 µM (inactive) | 19.5 µM (inactive) | 0.745 µM (active) | 2.66 µM (inactive)
13 | Cc1cccc(N2C(=O)C(Cl)=C(Cl)C2=O)c1 | > 41.6 µM (inactive) | > 91.2 µM (inactive) | > 67.5 µM (inactive) | > 100 µM (inactive) | – | > 43 µM (inactive) | > 73.6 µM (inactive) | > 100 µM (inactive) | 0.661 µM (active)
